Results: PubChem BioAssay (NCI)
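GI50: concentration for 50% inhibition of growth. At the TGI there is no net growth.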

What was measured:
Experiment in all cases: DTP human tumour cell line panel, 384-well format
786-0 renal = system: 786-0 renal
A498 renal = system: A498 renal
A549 NSCLC = system: A549 NSCLC
ACHN renal = system: ACHN renal
BT-549 breast = system: BT-549 breast
CAKI-1 renal = system: CAKI-1 renal
CCRF-CEM leukemia = system: CCRF-CEM leukemia
COLO 205 colon = system: COLO 205 colon
DU-145 prostate = system: DU-145 prostate
EKVX NSCLC = system: EKVX NSCLC
HCC-2998 colon = system: HCC-2998 colon
HCT-116 colon = system: HCT-116 colon
HCT-15 colon = system: HCT-15 colon
HL-60(TB) leukemia = system: HL-60(TB) leukemia
HOP-62 NSCLC = system: HOP-62 NSCLC
HOP-92 NSCLC = system: HOP-92 NSCLC
HS 578T breast = system: HS 578T breast
HT29 colon = system: HT29 colon
IGROV1 ovarian = system: IGROV1 ovarian
K-562 leukemia = system: K-562 leukemia
KM12 colon = system: KM12 colon
LOX IMVI melanoma = system: LOX IMVI melanoma
M14 melanoma = system: M14 melanoma
MALME-3M melanoma = system: MALME-3M melanoma
MCF7 breast = system: MCF7 breast
MDA-MB-231 breast = system: MDA-MB-231 breast
MDA-MB-435 melanoma = system: MDA-MB-435 melanoma
MDA-MB-468 breast = system: MDA-MB-468 breast
MOLT-4 leukemia = system: MOLT-4 leukemia
NCI-H226 lung = system: NCI-H226 lung
NCI-H23 lung = system: NCI-H23 lung
NCI-H322M lung = system: NCI-H322M lung
NCI-H460 NSCLC = system: NCI-H460 NSCLC
NCI-H522 lung = system: NCI-H522 lung
NCI/ADR-RES ovarian = system: NCI/ADR-RES ovarian
OVCAR-3 ovarian = system: OVCAR-3 ovarian
OVCAR-4 ovarian = system: OVCAR-4 ovarian
OVCAR-5 ovarian = system: OVCAR-5 ovarian
OVCAR-8 ovarian = system: OVCAR-8 ovarian
PC-3 prostate = system: PC-3 prostate
RPMI-8226 leukemia = system: RPMI-8226 leukemia
RXF 393 renal = system: RXF 393 renal
SF-268 CNS = system: SF-268 CNS
SF-295 CNS = system: SF-295 CNS
SF-539 CNS = system: SF-539 CNS
SK-MEL-28 melanoma = system: SK-MEL-28 melanoma
SK-MEL-5 melanoma = system: SK-MEL-5 melanoma
SK-OV-3 ovarian = system: SK-OV-3 ovarian
SN12C renal = system: SN12C renal
SNB-19 CNS = system: SNB-19 CNS
SNB-75 CNS = system: SNB-75 CNS
SW-620 colon = system: SW-620 colon
T-47D breast = system: T-47D breast
TK-10 renal = system: TK-10 renal
U251 glioblastoma = system: U251 glioblastoma
UACC-257 melanoma = system: UACC-257 melanoma
UACC-62 melanoma = system: UACC-62 melanoma
UO-31 renal = system: UO-31 renal

In the case of `Cc1nnn(C)c1-c1cnc2c3ccc(C(C)(C)O)cc3n([C@H](c3ccccc3)C3CCOCC3)c2c1`, the GI50 ([…]-0 renal) is reported as 15 nM, the TGI (786-0 renal) is reported as 11.7 µM and the GI50 (A498 renal) is reported as < 10 nM. The TGI (A498 renal) was 10.7 µM, the GI50 (A549 NSCLC) was < 10 nM and the TGI (A549 NSCLC) was 13 µM. The GI50 (ACHN renal) was 44.5 nM, the TGI (ACHN renal) was 12.2 µM and the GI50 (BT-549 breast) was < 10 nM. The TGI (BT-549 breast) was 72.7 nM, the GI50 (CAKI-1 renal) was < 10 nM and the TGI (CAKI-1 renal) was 3.96 µM. For the same compound, the GI50 (CCRF-CEM leukemia) was < 10 nM, the TGI (CCRF-CEM leukemia) was 1420 nM and the GI50 (COLO 205 colon) was < 10 nM. The TGI (COLO 205 colon) was 331 nM, the GI50 (DU-145 prostate) was 753 nM and the TGI (DU-145 prostate) was 22.1 µM. For the same compound, the GI50 (EKVX NSCLC) was 3.19 µM, the TGI (EKVX NSCLC) was 21.6 µM and the GI50 (HCC-2998 colon) was < 10 nM. The TGI (HCC-2998 colon) was 49.7 nM, the GI50 (HCT-116 colon) was 24.2 nM and the TGI (HCT-116 colon) was 12.8 µM. The GI50 (HCT-15 colon) was 13.9 nM, the TGI (HCT-15 colon) was 1320 nM and the GI50 (HL-60(TB) leukemia) was < 10 nM. The GI50 (HOP-62 NSCLC) was < 10 nM, the TGI (HOP-62 NSCLC) was 2770 nM and the GI50 (HOP-92 NSCLC) was 25.3 nM. The TGI (HOP-92 NSCLC) was 14.5 µM, the GI50 (HS 578T breast) was < 10 nM and the TGI (HS 578T breast) was 758 nM. The GI50 (HT29 colon) was < 10 nM, the TGI (HT29 colon) was 15.1 µM and the GI50 (IGROV1 ovarian) was < 10 nM. For the same compound, the TGI (IGROV1 ovarian) was 1360 nM, the GI50 (K-562 leukemia) was < 10 nM and the TGI (K-562 leukemia) was 13.8 µM. The GI50 (KM12 colon) was < 10 nM, the TGI (KM12 colon) was 10.8 µM and the GI50 (LOX IMVI melanoma) was < 10 nM. For the same compound, the TGI (LOX IMVI melanoma) was 11.3 nM, the GI50 (M14 melanoma) was < 10 nM and the TGI (M14 melanoma) was 15.7 µM. The GI50 (MALME-3M melanoma) was < 10 nM, the TGI (MALME-3M melanoma) was 268 nM and the GI50 (MCF7 breast) was < 10 nM. For the same compound, the TGI (MCF7 breast) was 435 nM, the GI50 (MDA-MB-231 breast) was < 10 nM and the TGI (MDA-MB-231 breast) was 11.8 µM. For the same compound, the GI50 (MDA-MB-435 melanoma) was 43.1 nM, the TGI (MDA-MB-435 melanoma) was 61.7 µM and the GI50 (MDA-MB-468 breast) was < 10 nM. For the same compound, the TGI (MDA-MB-468 breast) was 1220 nM, the GI50 (MOLT-4 leukemia) was < 10 nM and the TGI (MOLT-4 leukemia) was 211 nM. For the same compound, the GI50 (NCI-H226 lung) was < 10 nM, the TGI (NCI-H226 lung) was 10.3 µM and the GI50 (NCI-H23 lung) was < 10 nM. The TGI (NCI-H23 lung) was 3.35 µM, the GI50 (NCI-H322M lung) was 19 nM and the TGI (NCI-H322M lung) was 17.5 µM. For the same compound, the GI50 (NCI-H460 NSCLC) was 354 nM, the TGI (NCI-H460 NSCLC) was 15.6 µM and the GI50 (NCI-H522 lung) was < 10 nM. The TGI (NCI-H522 lung) was 10.6 nM, the GI50 (NCI/ADR-RES ovarian) was 197 nM and the TGI (NCI/ADR-RES ovarian) was 8.56 µM. The GI50 (OVCAR-3 ovarian) was < 10 nM, the TGI (OVCAR-3 ovarian) was 1710 nM and the GI50 (OVCAR-4 ovarian) was < 10 nM. For the same compound, the TGI (OVCAR-4 ovarian) was 21.2 nM, the GI50 (OVCAR-5 ovarian) was < 10 nM and the TGI (OVCAR-5 ovarian) was 12.6 µM. The GI50 (OVCAR-8 ovarian) was < 10 nM, the TGI (OVCAR-8 ovarian) was 1300 nM and the GI50 (PC-3 prostate) was < 10 nM. The TGI (PC-3 prostate) was 25 µM, the GI50 (RPMI-8226 leukemia) was < 10 nM and the GI50 (RXF 393 renal) was < 10 nM. It also gave a TGI (RXF 393 renal) of 155 nM, a GI50 (SF-268 CNS) of 79.3 nM and a TGI (SF-268 CNS) of 16.8 µM. The GI50 (SF-295 CNS) was 380 nM, the TGI (SF-295 CNS) was 17 µM and the GI50 (SF-539 CNS) was 10.3 nM. For the same compound, the TGI (SF-539 CNS) was 54.3 nM, the GI50 (SK-MEL-28 melanoma) was 89.9 nM and the TGI (SK-MEL-28 melanoma) was 24.2 µM. The GI50 (SK-MEL-5 melanoma) was < 10 nM, the TGI (SK-MEL-5 melanoma) was 1110 nM and the GI50 (SK-OV-3 ovarian) was < 10 nM. It also gave a TGI (SK-OV-3 ovarian) of 1450 nM, a GI50 (SN12C renal) of 1210 nM and a TGI (SN12C renal) of 20.6 µM. The GI50 (SNB-19 CNS) was 32 nM, the TGI (SNB-19 CNS) was 20.3 µM and the GI50 (SNB-75 CNS) was 299 nM. The TGI (SNB-75 CNS) was 14 µM, the GI50 (SW-620 colon) was 1740 nM and the TGI (SW-620 colon) was 17.4 µM. For the same compound, the GI50 (T-47D breast) was 13.7 nM, the TGI (T-47D breast) was 11.1 µM and the GI50 (TK-10 renal) was < 10 nM. It also gave a TGI (TK-10 renal) of 90.8 nM, a GI50 (U251 glioblastoma) of 315 nM and a TGI (U251 glioblastoma) of 12.7 µM. The GI50 (UACC-257 melanoma) was < 10 nM, the TGI (UACC-257 melanoma) was 5.55 µM and the GI50 (UACC-62 melanoma) was < 10 nM. It also gave a TGI (UACC-62 melanoma) of 146 nM, a GI50 (UO-31 renal) of 13.2 nM and a TGI (UO-31 renal) of 13.4 µM.
